According to PubChem BioAssay AID180 (DTP/NCI, 2004):
Values joined by “and” are separate entries in the source; they are usually repeats but may differ in a detail not shown here. Equal entries are not always repeated.

Tested on: BDF1 mice, Adenocarcinoma 755 s.c., tumor weight T/C
Assay: NCI In Vivo Anticancer Drug Screen. Data for tumor model Adenocarcinoma 755 (subcutaneous) in B6D2F1 (BDF1) mice
Conditions: endpoint: mean tumor weight, higher = larger tumour
Procedure: The antitumor activity of compounds was measured in mice bearing transplantable tumors. Survival or tumor size were measured and the results are expressed as the measurement made in the treated group (T) divided by the measurement made in the vehicle treated control group (C). The tumor model used in this assay is Adenocarcinoma 755 (subcutaneous) in B6D2F1 (BDF1) mice

[1] = dose: 100.0 mg/kg/injection, schedule: Q01DX011 (ip), vehicle: carboxymethylcellulose (CMC)
[2] = dose: 15.0 mg/kg/injection, schedule: Q01DX011 (ip), vehicle: saline
[3] = dose: 30.0 mg/kg/injection, schedule: Q01DX011 (ip), vehicle: carboxymethylcellulose (CMC)
[4] = dose: 60.0 mg/kg/injection, schedule: Q01DX011 (ip), vehicle: carboxymethylcellulose (CMC)
[5] = dose: 3.1 mg/kg/injection, schedule: Q01DX011 (ip), vehicle: methylcellulose (MC)
[6] = dose: 6.2 mg/kg/injection, schedule: Q01DX011 (ip), vehicle: methylcellulose (MC)
[7] = dose: 1.5 mg/kg/injection, schedule: Q01DX011 (ip), vehicle: methylcellulose (MC)
[8] = dose: 12.5 mg/kg/injection, schedule: Q01DX011 (ip), vehicle: methylcellulose (MC)
[9] = dose: 57.0 mg/kg/injection, schedule: Q01DX011 (ip), vehicle: methylcellulose (MC)
[10] = dose: 113.0 mg/kg/injection, schedule: Q01DX011 (ip), vehicle: methylcellulose (MC)
[11] = dose: 225.0 mg/kg/injection, schedule: Q01DX011 (ip), vehicle: methylcellulose (MC)

In the case of `CN1CCC(OC(N)=O)CC1`, the T/C (dose: 44.0 mg/kg/injection, schedule: Q01DX011 (ip), vehicle: carboxymethylcellulose (CMC)) is reported as 84 % of control, the T/C (dose: 87.5 mg/kg/injection, schedule: Q01DX011 (ip), vehicle: carboxymethylcellulose (CMC)) is reported as 96 % of control and the T/C [1] is reported as 70 % of control. The T/C (dose: 155.0 mg/kg/injection, schedule: Q01DX011 (ip), vehicle: carboxymethylcellulose (CMC)) was 54 % of control, the T/C (dose: 175.0 mg/kg/injection, schedule: Q01DX011 (ip), vehicle: carboxymethylcellulose (CMC)) was 65 % of control and the T/C (dose: 230.0 mg/kg/injection, schedule: Q01DX011 (ip), vehicle: carboxymethylcellulose (CMC)) was 46 % of control. The T/C (dose: 525.0 mg/kg/injection, schedule: Q01DX011 (ip), vehicle: carboxymethylcellulose (CMC)) was 43 % of control.
With `CNC(=O)C(C)C` the T/C (dose: 31.2 mg/kg/injection, schedule: Q01DX011 (ip), vehicle: other) was 44 % of control, the T/C (dose: 62.5 mg/kg/injection, schedule: Q01DX011 (ip), vehicle: other) was 90 % of control and the T/C (dose: 125.0 mg/kg/injection, schedule: Q01DX011 (ip), vehicle: other) was 90 % of control. The T/C (dose: 250.0 mg/kg/injection, schedule: Q01DX011 (ip), vehicle: other) was 77 % of control.
In the case of `Cc1cc(N=Nc2ccc(-c3ccc(N=Nc4ccc(O)c(C(=O)O)c4)cc3)cc2)c(N)c(N=Nc2ccc(C(=O)Nc3ccc4cc(S(=O)(=O)O)ccc4c3)cc2)c1N`, the T/C (dose: 45.0 mg/kg/injection, schedule: Q01DX011 (ip), vehicle: carboxymethylcellulose (CMC)) is reported as 158 % of control, the T/C (dose: 65.0 mg/kg/injection, schedule: Q01DX011 (ip), vehicle: carboxymethylcellulose (CMC)) is reported as 119 % of control and the T/C [1] is reported as 69 % of control. The T/C (dose: 150.0 mg/kg/injection, schedule: Q01DX011 (ip), vehicle: carboxymethylcellulose (CMC)) was 72 % of control.
For `NC(=O)c1cc(N)nc(Cl)n1`, the T/C [2] was 102 % of control, the T/C (dose: 31.0 mg/kg/injection, schedule: Q01DX011 (ip), vehicle: saline) was 90 % of control and the T/C (dose: 62.0 mg/kg/injection, schedule: Q01DX011 (ip), vehicle: saline) was 87 % of control. For the same compound, the T/C (dose: 125.0 mg/kg/injection, schedule: Q01DX011 (ip), vehicle: saline) was 83 % of control and the T/C (dose: 250.0 mg/kg/injection, schedule: Q01DX011 (ip), vehicle: saline) was 61 % of control.
In the case of `C[C@]12CCC(=O)C=C1CC[C@H]1[C@@H]3CC[C@](O)(C(=O)CF)[C@@]3(C)C[C@H](O)[C@@]12F`, the T/C (dose: 0.87 mg/kg/injection, schedule: Q01DX011 (sc), vehicle: steriod suspending solution) is reported as 86 % of control, the T/C (dose: 1.75 mg/kg/injection, schedule: Q01DX011 (sc), vehicle: steriod suspending solution) is reported as 68 % of control and the T/C (dose: 3.5 mg/kg/injection, schedule: Q01DX011 (sc), vehicle: steriod suspending solution) is reported as 66 % of control and 69 % of control. For the same compound, the T/C (dose: 7.0 mg/kg/injection, schedule: Q01DX011 (sc), vehicle: steriod suspending solution) was 29 % of control and 34 % of control and 40 % of control, the T/C (dose: 28.0 mg/kg/injection, schedule: Q01DX011 (sc), vehicle: steriod suspending solution) was 9 % of control and 28 % of control and the T/C (dose: 56.0 mg/kg/injection, schedule: Q01DX011 (sc), vehicle: steriod suspending solution) was 10 % of control and 31 % of control.
For `Cn1c(=O)c2[nH]c(N/N=C/c3ccccc3C(=O)O)nc2n(C)c1=O`, the T/C [3] was 103 % of control, the T/C [4] was 92 % of control and the T/C (dose: 120.0 mg/kg/injection, schedule: Q01DX011 (ip), vehicle: carboxymethylcellulose (CMC)) was 88 % of control. For the same compound, the T/C (dose: 240.0 mg/kg/injection, schedule: Q01DX011 (ip), vehicle: carboxymethylcellulose (CMC)) was 95 % of control.
With `Nc1nc(=S)c2ncn(C3CCCC3)c2[nH]1` the T/C [5] was 37 % of control and the T/C [6] was 8 % of control.
`O=P(N1CCCCCC1)(N1CC1)N1CC1` was tested, and the T/C (dose: 1.0 mg/kg/injection, schedule: Q01DX011 (ip), vehicle: methylcellulose (MC)) was 95 % of control, the T/C (dose: 2.0 mg/kg/injection, schedule: Q01DX011 (ip), vehicle: methylcellulose (MC)) was 68 % of control and the T/C (dose: 4.0 mg/kg/injection, schedule: Q01DX011 (ip), vehicle: methylcellulose (MC)) was 48 % of control. For the same compound, the T/C (dose: 8.0 mg/kg/injection, schedule: Q01DX011 (ip), vehicle: methylcellulose (MC)) was 28 % of control.
`Nc1nc(SCc2cccc(Br)c2)c2ncn(C3OC(CO)C(O)C3O)c2n1` (stereo unspecified) was tested, and the T/C [7] was 84 % of control, the T/C [5] was 62 % of control and the T/C [6] was 12 % of control and 24 % of control. For the same compound, the T/C [8] was 1 % of control and the T/C (dose: 25.0 mg/kg/injection, schedule: Q01DX011 (ip), vehicle: methylcellulose (MC)) was 2 % of control.
With `NC(N)=Nc1nc2ccccc2s1` the T/C (dose: 6.25 mg/kg/injection, schedule: Q01DX011 (ip), vehicle: carboxymethylcellulose (CMC)) was 108 % of control, the T/C (dose: 6.25 mg/kg/injection, schedule: Q01DX011 (ip), vehicle: other) was 84 % of control and the T/C (dose: 6.25 mg/kg/injection, schedule: Q01DX011 (ip), vehicle: water) was 105 % of control. For the same compound, the T/C (dose: 12.5 mg/kg/injection, schedule: Q01DX011 (ip), vehicle: carboxymethylcellulose (CMC)) was 53 % of control, the T/C (dose: 25.0 mg/kg/injection, schedule: Q01DX011 (ip), vehicle: other) was 90 % of control and the T/C (dose: 25.0 mg/kg/injection, schedule: Q01DX011 (ip), vehicle: water) was 84 % of control. The T/C (dose: 50.0 mg/kg/injection, schedule: Q01DX011 (ip), vehicle: water) was 48 % of control.
`CC[C@]1(O)C[C@H]2CN(CCc3c([nH]c4ccccc34)[C@@](C(=O)OC)(c3cc4c(cc3OC)N(C)[C@H]3[C@@](O)(C(=O)OC)[C@H](OC(C)=O)[C@]5(CC)C=CCN6CC[C@]43[C@@H]65)C2)C1` was tested, and the T/C (dose: 0.05 mg/kg/injection, schedule: Q01DX011 (ip), vehicle: carboxymethylcellulose (CMC)) was 68 % of control and 76 % of control and the T/C (dose: 0.1 mg/kg/injection, schedule: Q01DX011 (ip), vehicle: carboxymethylcellulose (CMC)) was 94 % of control and 87 % of control.
With `CC(=O)Oc1ccc2c(c1)CC[C@@H]1[C@@H]2CC[C@@]2(C)[C@H]1CC[C@]2(C)OC(C)=O` the T/C (dose: 31.0 mg/kg/injection, schedule: Q01DX011 (sc), vehicle: steriod suspending solution) was 76 % of control, the T/C (dose: 62.5 mg/kg/injection, schedule: Q01DX011 (sc), vehicle: steriod suspending solution) was 64 % of control and the T/C (dose: 125.0 mg/kg/injection, schedule: Q01DX011 (sc), vehicle: steriod suspending solution) was 71 % of control. The T/C (dose: 250.0 mg/kg/injection, schedule: Q01DX011 (sc), vehicle: steriod suspending solution) was 44 % of control.
`O[C@H](CN1CC1)[C@@H](O)CN1CC1` was tested, and the T/C (dose: 0.19 mg/kg/injection, schedule: Q01DX011 (ip), vehicle: methylcellulose (MC)) was 50 % of control, the T/C (dose: 0.38 mg/kg/injection, schedule: Q01DX011 (ip), vehicle: methylcellulose (MC)) was 47 % of control and the T/C (dose: 0.75 mg/kg/injection, schedule: Q01DX011 (ip), vehicle: methylcellulose (MC)) was 13 % of control. For the same compound, the T/C [7] was 8 % of control.
With `O=C(O)CCC(=O)CCl` the T/C (dose: 34.0 mg/kg/injection, schedule: Q01DX011 (ip), vehicle: methylcellulose (MC)) was 46 % of control.
With `CC1CCC(n2cnc3c([N+](C)(C)C)ncnc32)O1` (stereo unspecified) the T/C [2] was 58 % of control, the T/C (dose: 30.0 mg/kg/injection, schedule: Q01DX011 (ip), vehicle: saline) was 35 % of control and 40 % of control and the T/C (dose: 60.0 mg/kg/injection, schedule: Q01DX011 (ip), vehicle: saline) was 5 % of control. The T/C (dose: 120.0 mg/kg/injection, schedule: Q01DX011 (ip), vehicle: saline) was 1 % of control.
`Clc1ncc2[nH]c(Cl)nc2n1` was tested, and the T/C [3] was 96 % of control and the T/C [4] was 112 % of control.
For `COc1ccc(C(=O)OCC2OC(n3cnc4c(=S)nc(N)[nH]c43)C(OC(=O)c3ccc(OC)cc3)C2OC(=O)c2ccc(OC)cc2)cc1` (stereo unspecified), the T/C (dose: 25.0 mg/kg/injection, schedule: Q01DX011 (ip), vehicle: carboxymethylcellulose (CMC)) was 88 % of control, the T/C (dose: 50.0 mg/kg/injection, schedule: Q01DX011 (ip), vehicle: carboxymethylcellulose (CMC)) was 107 % of control and the T/C [1] was 48 % of control. For the same compound, the T/C (dose: 200.0 mg/kg/injection, schedule: Q01DX011 (ip), vehicle: carboxymethylcellulose (CMC)) was 7 % of control.
For `CS(=O)(=O)OCCC(=O)NCCCCCNC(=O)CCOS(C)(=O)=O`, the T/C [9] was 64 % of control, the T/C [10] was 53 % of control and the T/C [11] was 30 % of control.
`O=C(CCBr)N1CN(C(=O)CCBr)CN(C(=O)CCBr)C1` was tested, and the T/C [9] was 117 % of control, the T/C [10] was 97 % of control and the T/C [11] was 80 % of control.
With `CCNc1ncnc2c1cnn2C1CCCO1` (stereo unspecified) the T/C [5] was 61 % of control, the T/C [6] was 39 % of control and the T/C [8] was 3 % of control.
`Nc1n[nH]c(N)n1` was tested, and the T/C (dose: 300.0 mg/kg/injection, schedule: Q01DX011 (ip), vehicle: methylcellulose (MC)) was 55 % of control, the T/C (dose: 400.0 mg/kg/injection, schedule: Q01DX011 (ip), vehicle: methylcellulose (MC)) was 58 % of control and the T/C (dose: 500.0 mg/kg/injection, schedule: Q01DX011 (ip), vehicle: methylcellulose (MC)) was 44 % of control.
